Calls of active or inactive are those of the source. How the calls were made is not given here.
System: CCRIS mutagenicity, Ames/micronucleus/aberration tests
Assay: CCRIS mutagenicity studies

For `Cc1nc2ccccc2s1`, the mutagenic call (Test System: AMES SALMONELLA TYPHIMURIUM, Strain/Indicator: TA98, Metabolic Activation: HAMSTER, LIVER, S-9, AROCLOR 1254, Method: STANDARD PLATE) was “inactive; negative”, the mutagenic call (Test System: AMES SALMONELLA TYPHIMURIUM, Strain/Indicator: TA98, Metabolic Activation: NONE, Method: STANDARD PLATE) was “inactive; negative” and the mutagenic call (Test System: AMES SALMONELLA TYPHIMURIUM, Strain/Indicator: TA98, Metabolic Activation: RAT, LIVER, S-9, AROCLOR 1254, Method: STANDARD PLATE) was “inactive; negative”. The mutagenic call (Test System: AMES SALMONELLA TYPHIMURIUM, Strain/Indicator: TA100, Metabolic Activation: HAMSTER, LIVER, S-9, AROCLOR 1254, Method: STANDARD PLATE) was “inactive; negative”, the mutagenic call (Test System: AMES SALMONELLA TYPHIMURIUM, Strain/Indicator: TA100, Metabolic Activation: NONE, Method: STANDARD PLATE) was “inactive; negative” and the mutagenic call (Test System: AMES SALMONELLA TYPHIMURIUM, Strain/Indicator: TA100, Metabolic Activation: RAT, LIVER, S-9, AROCLOR 1254, Method: STANDARD PLATE) was “inactive; negative”. For the same compound, the mutagenic call (Test System: AMES SALMONELLA TYPHIMURIUM, Strain/Indicator: TA102, Metabolic Activation: HAMSTER, LIVER, S-9, AROCLOR 1254, Method: STANDARD PLATE) was “inactive; negative”, the mutagenic call (Test System: AMES SALMONELLA TYPHIMURIUM, Strain/Indicator: TA102, Metabolic Activation: NONE, Method: STANDARD PLATE) was “inactive; negative” and the mutagenic call (Test System: AMES SALMONELLA TYPHIMURIUM, Strain/Indicator: TA102, Metabolic Activation: RAT, LIVER, S-9, AROCLOR 1254, Method: STANDARD PLATE) was “inactive; negative”. The mutagenic call (Test System: AMES SALMONELLA TYPHIMURIUM, Strain/Indicator: TA1535, Metabolic Activation: HAMSTER, LIVER, S-9, AROCLOR 1254, Method: STANDARD PLATE) was “inactive; negative”, the mutagenic call (Test System: AMES SALMONELLA TYPHIMURIUM, Strain/Indicator: TA1535, Metabolic Activation: NONE, Method: STANDARD PLATE) was “inactive; negative” and the mutagenic call (Test System: AMES SALMONELLA TYPHIMURIUM, Strain/Indicator: TA1535, Metabolic Activation: RAT, LIVER, S-9, AROCLOR 1254, Method: STANDARD PLATE) was “inactive; negative”. The mutagenic call (Test System: AMES SALMONELLA TYPHIMURIUM, Strain/Indicator: TA1537, Metabolic Activation: HAMSTER, LIVER, S-9, AROCLOR 1254, Method: STANDARD PLATE) was “inactive; negative”, the mutagenic call (Test System: AMES SALMONELLA TYPHIMURIUM, Strain/Indicator: TA1537, Metabolic Activation: NONE, Method: STANDARD PLATE) was “inactive; negative” and the mutagenic call (Test System: AMES SALMONELLA TYPHIMURIUM, Strain/Indicator: TA1537, Metabolic Activation: RAT, LIVER, S-9, AROCLOR 1254, Method: STANDARD PLATE) was “inactive; negative”. The mutagenic call (Test System: Mouse lymphoma, Strain/Indicator: L5178Y (tk+/tk-), Metabolic Activation: None, Method: Suspension/plate) was “active; positive” and the mutagenic call (Test System: Mouse lymphoma, Strain/Indicator: L5178Y (tk+/tk-), Metabolic Activation: Rat, Liver, S-9, Aroclor 1254, Method: Suspension/plate) was “inactive; negative”.
With `Clc1nncc2ncccc12` the mutagenic call (Test System: AMES SALMONELLA TYPHIMURIUM, Strain/Indicator: TA98, Metabolic Activation: NONE, Method: PREINCUBATION) was “inactive; negative”, the mutagenic call (Test System: AMES SALMONELLA TYPHIMURIUM, Strain/Indicator: TA98, Metabolic Activation: RAT, LIVER, S-9, PCB, Method: PREINCUBATION) was “inactive; negative” and the mutagenic call (Test System: AMES SALMONELLA TYPHIMURIUM, Strain/Indicator: TA100, Metabolic Activation: NONE, Method: PREINCUBATION) was “inactive; negative”. The mutagenic call (Test System: AMES SALMONELLA TYPHIMURIUM, Strain/Indicator: TA100, Metabolic Activation: RAT, LIVER, S-9, PCB, Method: PREINCUBATION) was “inactive; negative”.

— PubChem BioAssay AID1259407 (Chemical Carcinogenesis Research Information System (CCRIS), 2018)
